From publication PMC12373846, “Hemoglobin as a pseudoperoxidase and drug target for oxidative stress-related diseases” (Signal Transduction and Targeted Therapy, 2025)

Assays:
Assay in all cases: KINOMEscan
Format in all cases: binding
Conditions in all cases: 10000 nM; read-out: Percent Control
JNK2 = target: T1, JNK2 (Homo sapiens, UniProt P45984)
T1 construct: purchased DiscoverX KINOMEscan scanEDGE; Eurofins Cerep SafetyScreen87
Protocol: (§1) The possibility of KDS12025 on kinase off-target, the KINOMEscan panel of scanEDGE assay was conducted in DiscoverX (CA, USA) using a site-directed competition binding with the test compounds. The assay results are given in Supplementary Table 4 and experimental information is available on the DiscoverX web page (www.discoverx.com). Moreover, the Delta SafetyScreen87 panel assay was conducted in Eurofins Discovery (Cerep, France). The assay results are given in Supplementary Table 5 and experimental information is available on the DiscoverX web page (https://www.eurofinsdiscoveryservices.com).

ALK = target: T2, ALK (Homo sapiens, UniProt Q9UM73)
T2 construct: purchased DiscoverX KINOMEscan scanEDGE; Eurofins Cerep SafetyScreen87
Protocol: as §1

FGFR2 = target: T3, FGFR2 (Homo sapiens, UniProt P21802)
T3 construct: purchased DiscoverX KINOMEscan scanEDGE; Eurofins Cerep SafetyScreen87
Protocol: as §1

PDGFRA = target: T4, PDGFRA (Homo sapiens, UniProt P16234)
T4 construct: purchased DiscoverX KINOMEscan scanEDGE; Eurofins Cerep SafetyScreen87
Protocol: as §1

IGF1R = target: T5, IGF1R (Homo sapiens, UniProt P08069)
T5 construct: purchased DiscoverX KINOMEscan scanEDGE; Eurofins Cerep SafetyScreen87
Protocol: as §1

FGFR3 = target: T6, FGFR3 (Homo sapiens, UniProt P22607)
T6 construct: purchased DiscoverX KINOMEscan scanEDGE; Eurofins Cerep SafetyScreen87
Protocol: as §1

PAK1 = target: T7, PAK1 (Homo sapiens, UniProt Q13153)
T7 construct: purchased DiscoverX KINOMEscan scanEDGE; Eurofins Cerep SafetyScreen87
Protocol: as §1

JNK1 = target: T8, JNK1 (Homo sapiens, UniProt P45983)
T8 construct: purchased DiscoverX KINOMEscan scanEDGE; Eurofins Cerep SafetyScreen87
Protocol: as §1

MAPKAPK2 = target: T9, MAPKAPK2 (Homo sapiens, UniProt P49137)
T9 construct: purchased DiscoverX KINOMEscan scanEDGE; Eurofins Cerep SafetyScreen87
T9 sequence (P49137 whole entry): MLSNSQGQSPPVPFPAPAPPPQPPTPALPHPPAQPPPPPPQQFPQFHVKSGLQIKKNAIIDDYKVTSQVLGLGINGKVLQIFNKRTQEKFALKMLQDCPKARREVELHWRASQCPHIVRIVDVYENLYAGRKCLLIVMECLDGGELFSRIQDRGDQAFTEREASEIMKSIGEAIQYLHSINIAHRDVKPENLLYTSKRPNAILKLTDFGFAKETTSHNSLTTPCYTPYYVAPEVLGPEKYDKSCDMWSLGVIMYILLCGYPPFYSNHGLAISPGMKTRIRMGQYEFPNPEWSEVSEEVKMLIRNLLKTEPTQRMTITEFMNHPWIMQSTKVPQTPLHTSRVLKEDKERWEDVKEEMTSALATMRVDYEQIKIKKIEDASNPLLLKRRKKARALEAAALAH
Protocol: as §1

KIT(V559D,T670I) = target: T10, KIT(V559D,T670I) (Homo sapiens, UniProt P10721, T670I/V559D)
T10 construct: purchased DiscoverX KINOMEscan scanEDGE; Eurofins Cerep SafetyScreen87
T10 sequence (P10721 26-976 V559D/T670I): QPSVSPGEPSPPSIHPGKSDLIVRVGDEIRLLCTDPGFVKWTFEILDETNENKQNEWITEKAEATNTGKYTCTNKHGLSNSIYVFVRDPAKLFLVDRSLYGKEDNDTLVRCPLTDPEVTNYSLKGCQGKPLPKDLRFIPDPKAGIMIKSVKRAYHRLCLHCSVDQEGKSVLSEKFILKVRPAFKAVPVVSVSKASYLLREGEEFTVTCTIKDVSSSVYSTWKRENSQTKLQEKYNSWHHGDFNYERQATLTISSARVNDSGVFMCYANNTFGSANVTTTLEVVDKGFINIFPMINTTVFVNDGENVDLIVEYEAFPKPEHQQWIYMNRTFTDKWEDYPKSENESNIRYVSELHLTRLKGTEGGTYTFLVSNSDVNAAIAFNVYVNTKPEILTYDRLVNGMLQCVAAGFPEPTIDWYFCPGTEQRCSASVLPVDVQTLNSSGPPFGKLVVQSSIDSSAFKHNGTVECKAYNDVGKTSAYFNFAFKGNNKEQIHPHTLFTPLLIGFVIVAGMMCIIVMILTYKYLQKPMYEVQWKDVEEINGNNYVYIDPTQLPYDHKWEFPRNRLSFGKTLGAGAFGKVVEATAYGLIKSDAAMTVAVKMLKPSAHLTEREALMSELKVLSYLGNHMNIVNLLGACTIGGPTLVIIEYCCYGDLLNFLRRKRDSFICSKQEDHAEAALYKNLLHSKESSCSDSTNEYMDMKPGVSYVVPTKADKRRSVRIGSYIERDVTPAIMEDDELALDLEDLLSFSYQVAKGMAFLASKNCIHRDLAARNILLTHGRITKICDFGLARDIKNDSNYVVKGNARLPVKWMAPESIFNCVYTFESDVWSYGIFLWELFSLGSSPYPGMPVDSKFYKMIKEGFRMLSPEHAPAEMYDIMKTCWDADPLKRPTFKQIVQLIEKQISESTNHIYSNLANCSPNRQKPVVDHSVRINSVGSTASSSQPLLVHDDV
Protocol: as §1

[1] = target: T11, ABL1(T315I)-phosphorylated (Homo sapiens, UniProt P00519, T315I)
T11 construct: purchased DiscoverX KINOMEscan scanEDGE; Eurofins Cerep SafetyScreen87
Protocol: as §1

BTK = target: T12, BTK (Homo sapiens, UniProt Q06187)
T12 construct: purchased DiscoverX KINOMEscan scanEDGE; Eurofins Cerep SafetyScreen87
Protocol: as §1

ZAP70 = target: T13, ZAP70 (Homo sapiens, UniProt P43403)
T13 construct: purchased DiscoverX KINOMEscan scanEDGE; Eurofins Cerep SafetyScreen87
Protocol: as §1

AURKB = target: T14, AURKB (Homo sapiens, UniProt Q96GD4)
T14 construct: purchased DiscoverX KINOMEscan scanEDGE; Eurofins Cerep SafetyScreen87
Protocol: as §1

TSSK1B = target: T15, TSSK1B (Homo sapiens, UniProt Q9BXA7)
T15 construct: purchased DiscoverX KINOMEscan scanEDGE; Eurofins Cerep SafetyScreen87
Protocol: as §1

CSF1R = target: T16, CSF1R (Homo sapiens, UniProt P07333)
T16 construct: purchased DiscoverX KINOMEscan scanEDGE; Eurofins Cerep SafetyScreen87
T16 sequence (P07333 20-972): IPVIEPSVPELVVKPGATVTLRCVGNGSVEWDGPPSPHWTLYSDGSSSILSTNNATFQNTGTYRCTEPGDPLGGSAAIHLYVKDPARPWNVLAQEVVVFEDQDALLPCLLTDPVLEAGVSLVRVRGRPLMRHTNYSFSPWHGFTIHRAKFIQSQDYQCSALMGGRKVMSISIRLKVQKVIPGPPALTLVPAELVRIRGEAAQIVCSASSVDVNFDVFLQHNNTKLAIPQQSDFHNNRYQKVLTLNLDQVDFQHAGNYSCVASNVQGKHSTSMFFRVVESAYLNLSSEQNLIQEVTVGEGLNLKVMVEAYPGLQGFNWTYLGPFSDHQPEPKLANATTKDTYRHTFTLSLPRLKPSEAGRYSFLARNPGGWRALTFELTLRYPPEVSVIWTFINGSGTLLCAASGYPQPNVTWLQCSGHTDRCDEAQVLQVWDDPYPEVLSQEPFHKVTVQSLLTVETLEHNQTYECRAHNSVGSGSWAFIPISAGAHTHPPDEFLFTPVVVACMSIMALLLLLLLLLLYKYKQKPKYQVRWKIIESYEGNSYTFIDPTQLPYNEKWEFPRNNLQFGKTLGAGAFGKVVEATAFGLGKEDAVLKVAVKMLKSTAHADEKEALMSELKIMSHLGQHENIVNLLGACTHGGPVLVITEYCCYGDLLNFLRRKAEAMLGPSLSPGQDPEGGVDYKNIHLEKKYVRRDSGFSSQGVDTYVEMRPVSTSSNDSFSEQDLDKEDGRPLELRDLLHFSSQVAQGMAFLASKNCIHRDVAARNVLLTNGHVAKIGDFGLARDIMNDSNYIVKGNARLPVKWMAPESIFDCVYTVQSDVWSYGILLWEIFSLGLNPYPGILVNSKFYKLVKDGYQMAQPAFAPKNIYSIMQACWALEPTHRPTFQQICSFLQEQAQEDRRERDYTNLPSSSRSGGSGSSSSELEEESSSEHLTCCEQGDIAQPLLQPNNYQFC
Protocol: as §1

p38-beta = target: T17, p38-beta (Homo sapiens, UniProt Q15759)
T17 construct: purchased DiscoverX KINOMEscan scanEDGE; Eurofins Cerep SafetyScreen87
Protocol: as §1

[2] = target: T18, ABL1(E255K)-phosphorylated (Homo sapiens, UniProt P00519, E255K)
T18 construct: purchased DiscoverX KINOMEscan scanEDGE; Eurofins Cerep SafetyScreen87
Protocol: as §1

TRKA = target: T19, TRKA (Homo sapiens, UniProt P04629)
T19 construct: purchased DiscoverX KINOMEscan scanEDGE; Eurofins Cerep SafetyScreen87
Protocol: as §1

ERBB4 = target: T20, ERBB4 (Homo sapiens, UniProt Q15303)
T20 construct: purchased DiscoverX KINOMEscan scanEDGE; Eurofins Cerep SafetyScreen87
Protocol: as §1

MEK2 = target: T21, MEK2 (Homo sapiens, UniProt P36507)
T21 construct: purchased DiscoverX KINOMEscan scanEDGE; Eurofins Cerep SafetyScreen87
Protocol: as §1

AURKA = target: T22, AURKA (Homo sapiens, UniProt O14965)
T22 construct: purchased DiscoverX KINOMEscan scanEDGE; Eurofins Cerep SafetyScreen87
Protocol: as §1

[3] = target: T23, JAK2(JH1domain-catalytic) (Homo sapiens, UniProt O60674)
T23 construct: JAK2(JH1domain-catalytic); purchased DiscoverX KINOMEscan scanEDGE; Eurofins Cerep SafetyScreen87
T23 sequence (O60674 840-1132 limits assumed): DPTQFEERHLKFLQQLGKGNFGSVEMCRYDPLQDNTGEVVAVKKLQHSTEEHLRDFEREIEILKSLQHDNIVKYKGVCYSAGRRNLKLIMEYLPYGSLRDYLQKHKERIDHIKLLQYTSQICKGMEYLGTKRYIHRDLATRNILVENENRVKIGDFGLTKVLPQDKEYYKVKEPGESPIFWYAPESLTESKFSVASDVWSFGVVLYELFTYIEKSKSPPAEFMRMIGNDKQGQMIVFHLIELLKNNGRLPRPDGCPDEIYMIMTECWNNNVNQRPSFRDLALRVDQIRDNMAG
Protocol: as §1

PIM2 = target: T24, PIM2 (Homo sapiens, UniProt Q9P1W9)
T24 construct: purchased DiscoverX KINOMEscan scanEDGE; Eurofins Cerep SafetyScreen87
Protocol: as §1

LKB1 = target: T25, LKB1 (Homo sapiens, UniProt Q15831)
T25 construct: purchased DiscoverX KINOMEscan scanEDGE; Eurofins Cerep SafetyScreen87
Protocol: as §1

[4] = target: T26, RSK2(Kin.Dom.1-N-terminal) (Homo sapiens, UniProt P51812)
T26 construct: RSK2(Kin.Dom.1-N-terminal); purchased DiscoverX KINOMEscan scanEDGE; Eurofins Cerep SafetyScreen87
Protocol: as §1

PAK4 = target: T27, PAK4 (Homo sapiens, UniProt O96013)
T27 construct: purchased DiscoverX KINOMEscan scanEDGE; Eurofins Cerep SafetyScreen87
T27 sequence (O96013 whole entry): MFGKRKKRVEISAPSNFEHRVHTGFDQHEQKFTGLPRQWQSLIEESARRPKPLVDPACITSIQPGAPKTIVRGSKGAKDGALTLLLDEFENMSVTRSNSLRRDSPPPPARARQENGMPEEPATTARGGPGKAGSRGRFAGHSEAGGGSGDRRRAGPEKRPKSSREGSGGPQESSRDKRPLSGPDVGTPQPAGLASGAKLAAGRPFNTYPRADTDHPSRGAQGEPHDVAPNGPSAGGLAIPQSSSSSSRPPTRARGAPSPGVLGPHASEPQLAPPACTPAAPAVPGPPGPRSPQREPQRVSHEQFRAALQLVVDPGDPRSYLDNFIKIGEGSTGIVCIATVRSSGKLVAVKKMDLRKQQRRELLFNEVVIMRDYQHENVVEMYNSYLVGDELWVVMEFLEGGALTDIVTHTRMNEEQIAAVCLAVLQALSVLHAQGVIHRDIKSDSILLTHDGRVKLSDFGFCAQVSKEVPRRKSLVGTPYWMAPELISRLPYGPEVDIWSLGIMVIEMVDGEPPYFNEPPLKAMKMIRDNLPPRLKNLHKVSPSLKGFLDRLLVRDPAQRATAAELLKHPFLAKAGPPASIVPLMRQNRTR
Protocol: as §1

CSNK1G2 = target: T28, CSNK1G2 (Homo sapiens, UniProt P78368)
T28 construct: purchased DiscoverX KINOMEscan scanEDGE; Eurofins Cerep SafetyScreen87
Protocol: as §1

BMPR2 = target: T29, BMPR2 (Homo sapiens, UniProt Q13873)
T29 construct: purchased DiscoverX KINOMEscan scanEDGE; Eurofins Cerep SafetyScreen87
Protocol: as §1

PLK3 = target: T30, PLK3 (Homo sapiens, UniProt Q9H4B4)
T30 construct: purchased DiscoverX KINOMEscan scanEDGE; Eurofins Cerep SafetyScreen87
Protocol: as §1

JNK3 = target: T31, JNK3 (Homo sapiens, UniProt P53779)
T31 construct: purchased DiscoverX KINOMEscan scanEDGE; Eurofins Cerep SafetyScreen87
Protocol: as §1

MARK3 = target: T32, MARK3 (Homo sapiens, UniProt P27448)
T32 construct: purchased DiscoverX KINOMEscan scanEDGE; Eurofins Cerep SafetyScreen87
Protocol: as §1

MET = target: T33, MET (Homo sapiens, UniProt P08581)
T33 construct: purchased DiscoverX KINOMEscan scanEDGE; Eurofins Cerep SafetyScreen87
T33 sequence (P08581 25-1390): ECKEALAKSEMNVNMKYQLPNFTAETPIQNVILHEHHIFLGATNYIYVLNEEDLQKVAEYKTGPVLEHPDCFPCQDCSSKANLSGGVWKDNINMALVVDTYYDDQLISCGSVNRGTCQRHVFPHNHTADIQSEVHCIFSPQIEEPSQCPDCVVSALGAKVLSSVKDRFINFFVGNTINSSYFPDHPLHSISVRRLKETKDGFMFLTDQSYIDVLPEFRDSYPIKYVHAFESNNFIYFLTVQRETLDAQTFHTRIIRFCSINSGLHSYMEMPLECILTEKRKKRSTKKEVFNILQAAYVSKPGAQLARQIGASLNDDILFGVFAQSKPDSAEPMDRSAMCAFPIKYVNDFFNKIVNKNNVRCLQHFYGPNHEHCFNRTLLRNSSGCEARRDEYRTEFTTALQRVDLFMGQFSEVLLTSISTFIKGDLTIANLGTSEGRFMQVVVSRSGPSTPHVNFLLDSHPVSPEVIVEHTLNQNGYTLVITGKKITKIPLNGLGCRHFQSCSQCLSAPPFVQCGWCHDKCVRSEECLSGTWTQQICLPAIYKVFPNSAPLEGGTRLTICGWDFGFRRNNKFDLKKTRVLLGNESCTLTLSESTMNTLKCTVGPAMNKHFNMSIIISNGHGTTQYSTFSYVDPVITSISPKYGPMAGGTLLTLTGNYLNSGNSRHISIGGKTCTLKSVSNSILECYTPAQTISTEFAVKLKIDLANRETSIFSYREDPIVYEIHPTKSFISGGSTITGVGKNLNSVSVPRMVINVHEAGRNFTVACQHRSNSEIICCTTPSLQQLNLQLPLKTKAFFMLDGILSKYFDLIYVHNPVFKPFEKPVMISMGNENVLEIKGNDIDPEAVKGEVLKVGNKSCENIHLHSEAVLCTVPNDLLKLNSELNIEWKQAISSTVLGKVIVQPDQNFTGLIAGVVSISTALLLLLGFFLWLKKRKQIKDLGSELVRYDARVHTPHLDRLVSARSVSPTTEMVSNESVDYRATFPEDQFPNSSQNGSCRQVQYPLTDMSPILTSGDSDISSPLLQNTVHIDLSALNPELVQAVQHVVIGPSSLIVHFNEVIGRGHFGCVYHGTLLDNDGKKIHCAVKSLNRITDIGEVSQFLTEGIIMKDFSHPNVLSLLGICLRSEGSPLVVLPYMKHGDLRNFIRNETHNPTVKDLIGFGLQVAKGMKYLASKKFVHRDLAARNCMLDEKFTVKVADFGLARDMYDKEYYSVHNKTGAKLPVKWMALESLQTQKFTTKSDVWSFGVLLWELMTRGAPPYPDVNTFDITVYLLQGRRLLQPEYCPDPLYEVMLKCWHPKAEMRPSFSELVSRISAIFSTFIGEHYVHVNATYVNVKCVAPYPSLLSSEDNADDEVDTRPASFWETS
Protocol: as §1

TGFBR1 = target: T34, TGFBR1 (Homo sapiens, UniProt P36897)
T34 construct: purchased DiscoverX KINOMEscan scanEDGE; Eurofins Cerep SafetyScreen87
Protocol: as §1

PIM3 = target: T35, PIM3 (Homo sapiens, UniProt Q86V86)
T35 construct: purchased DiscoverX KINOMEscan scanEDGE; Eurofins Cerep SafetyScreen87
Protocol: as §1

MEK1 = target: T36, MEK1 (Homo sapiens, UniProt Q02750)
T36 construct: purchased DiscoverX KINOMEscan scanEDGE; Eurofins Cerep SafetyScreen87
Protocol: as §1

Which remaining binding at 10 µM (JNK2) does the source give for `CNc1ccc(NCCc2ccccc2OC)cc1.Cl` [KDS12025, N^1-(2-methoxyphenethyl)-N^4-methylbenzene-1,4-diamine hydrochloride salt] here?
Its remaining binding at 10 µM is 91%.

What about the remaining binding at 10 µM (ALK) of the same compound?
The remaining binding at 10 µM was 98%.

And the remaining binding at 10 µM (FGFR2)?
The remaining binding at 10 µM was 87%.

And the remaining binding at 10 µM (PDGFRA)?
Its remaining binding at 10 µM is 85%.

What about the remaining binding at 10 µM (IGF1R) of the same compound?
The remaining binding at 10 µM was 84%.

What about the remaining binding at 10 µM (FGFR3) of the same compound?
The remaining binding at 10 µM was 91%.

What about the remaining binding at 10 µM (PAK1) of the same compound?
The remaining binding at 10 µM was 75%.

And the remaining binding at 10 µM (JNK1)?
The remaining binding at 10 µM was 75%.

What about the remaining binding at 10 µM (MAPKAPK2) of the same compound?
Its remaining binding at 10 µM is 75%.

What about the remaining binding at 10 µM (KIT(V559D,T670I)) of the same compound?
The remaining binding at 10 µM was 94%.

And the remaining binding at 10 µM [1]?
The remaining binding at 10 µM was 84%.

And the remaining binding at 10 µM (BTK)?
Its remaining binding at 10 µM is 100%.

And the remaining binding at 10 µM (ZAP70)?
The remaining binding at 10 µM was 88%.

What about the remaining binding at 10 µM (AURKB) of the same compound?
The remaining binding at 10 µM was 78%.

What about the remaining binding at 10 µM (TSSK1B) of the same compound?
The remaining binding at 10 µM was 45%.

And the remaining binding at 10 µM (CSF1R)?
The remaining binding at 10 µM was 100%.

What about the remaining binding at 10 µM (p38-beta) of the same compound?
Its remaining binding at 10 µM is 100%.

And the remaining binding at 10 µM [2]?
Its remaining binding at 10 µM is 100%.

And the remaining binding at 10 µM (TRKA)?
The remaining binding at 10 µM was 100%.

And the remaining binding at 10 µM (ERBB4)?
The remaining binding at 10 µM was 92%.

What about the remaining binding at 10 µM (MEK2) of the same compound?
The remaining binding at 10 µM was 91%.

What about the remaining binding at 10 µM (AURKA) of the same compound?
The remaining binding at 10 µM was 86%.

And the remaining binding at 10 µM [3]?
Its remaining binding at 10 µM is 100%.

And the remaining binding at 10 µM (PIM2)?
The remaining binding at 10 µM was 64%.

What about the remaining binding at 10 µM (LKB1) of the same compound?
The remaining binding at 10 µM was 80%.

What about the remaining binding at 10 µM [4] of the same compound?
Its remaining binding at 10 µM is 84%.

And the remaining binding at 10 µM (PAK4)?
Its remaining binding at 10 µM is 100%.

And the remaining binding at 10 µM (CSNK1G2)?
Its remaining binding at 10 µM is 45%.

And the remaining binding at 10 µM (BMPR2)?
The remaining binding at 10 µM was 92%.

What about the remaining binding at 10 µM (PLK3) of the same compound?
The remaining binding at 10 µM was 75%.

What about the remaining binding at 10 µM (JNK3) of the same compound?
Its remaining binding at 10 µM is 68%.

What about the remaining binding at 10 µM (MARK3) of the same compound?
The remaining binding at 10 µM was 66%.

And the remaining binding at 10 µM (MET)?
The remaining binding at 10 µM was 82%.

And the remaining binding at 10 µM (TGFBR1)?
The remaining binding at 10 µM was 96%.

What about the remaining binding at 10 µM (PIM3) of the same compound?
The remaining binding at 10 µM was 84%.

And the remaining binding at 10 µM (MEK1)?
The remaining binding at 10 µM was 82%.
